For experiment [1], the system named is G-INT gastric cancer cell lines. Briefly: In vitro cell proliferation assay (MTS), G-INT cell lines. The format is cell-based, human. Conditions: for In vitro sensitivity of G-INT versus G-DIF cell lines: 28 cell lines (11 G-INT and 17 G-DIF) treated with increasing concentrations; for GI50: mean of 11 G-INT cell lines, drug concentration at which 50% growth inhibition is achieved, read-out: Mean GI-50 concentration. The procedure:
(§1) Cell proliferation assays were performed using a tetrazolium compound-based colorimetric method. Adherent or semi-adherent cell lines with doubling times less than 48 hours were used in this analysis. The cell lines for which cell proliferation assays were performed are: YCC19, YCC18, TMK1, YCC2, CLS145, YCC9, YCC6, NUGC3, HGC-27, Fu97, Ist1, YCC7, YCC16, Hs746T, MKN45, KatoIII, AGS, SNU719, AZ521, YCC1, MKN1, YCC11, IM95, MKN7, YCC3, YCC10, SCH and N87. Cell proliferation assays were performed using a tetrazolium compound-based colorimetric method (MTS kit, Promega, Madison, Wis., USA) according to the manufacturer's instructions and measured using an EnVision 2104 multilabel plate reader (Perkin Elmer, Finland) at 490 nm. Inhibition of cell growth by drugs was also visually confirmed under microscopy. Drugs used include cisplatin (Sigma, 479306-1G), oxaliplatin (Sigma, O9512), 5-Fluorouracil (Sigma, F6627-1G).
(§2) Of the 37 cell lines, 28 cell lines (11 G-INT and 17 G-DIF) had growth characteristics suitable for in vitro drug sensitivity testing. 5-FU, oxaliplatin and cisplatin are drugs presently employed in the adjuvant and 1st line palliative treatment of GC. The 28 cell lines were treated with increasing concentrations of these drugs.

In experiment [2] the test system is G-DIF gastric cancer cell lines. Briefly: In vitro cell proliferation assay (MTS), G-DIF cell lines. It is filed as cell-based, human. Conditions: mean of 17 G-DIF cell lines, drug concentration at which 50% growth inhibition is achieved, read-out: Mean GI-50 concentration. The procedure: as §1, §2
In the next experiment the test system is GC subsets. Conditions: INT-0116, ten-year update subgroup analysis; cited from earlier work.

“Also recorded” adds a separate entry of the source. Where two headings read alike, the source gives them in different places.

Turning to `O=c1[nH]cc(F)c(=O)[nH]1` [5-FU, 5-Fluorouracil], the “In vitro sensitivity of G-INT versus G-DIF cell lines” value in experiment [1] is on record as “G-INT cell lines were significantly more sensitive”. Besides, the GI50 in experiment [1] (Homo sapiens) is 5.2 µM; in experiment [2] (Homo sapiens), 23.2 µM. Also, the “Benefit from 5-FU therapy by GC subset” value with GC subsets is “all GC subsets benefited from 5-FU therapy except for cases with diffuse histology”.

For `N.N.[Cl][Pt][Cl]` [cisplatin], in experiment [1], the “In vitro sensitivity of G-INT versus G-DIF cell lines” value is “G-DIF cell lines were more sensitive; also recorded: more resistant” and the GI50 was 38.6 µM. Further, the GI50 in experiment [2] came to 13.3 µM.

For the compound `O=C1[O][Pt]2([NH][C@@H]3CCCC[C@H]3[NH]2)[O]C1=O` [oxaliplatin], the “In vitro sensitivity of G-INT versus G-DIF cell lines” value in experiment [1] is “G-INT cell lines were significantly more sensitive”. Further, the GI50 in experiment [1] was found to be 1.33 µM; in experiment [2], 5.49 µM.

The values are drawn from patent publication US20130064901A1, “GENE EXPRESSION PROFILING FOR CLASSIFYING AND TREATING GASTRIC CANCER” (Agency for Science, Technology and Research, priority 2011, published 2013).
